In patent US9663515B2, “Dihydropyrrolopyridine inhibitors of ROR-gamma” (Vitae Pharmaceuticals, Inc., priority 2014, dated 2017) one finds Ki, IC50 and inhibition data, which are given here for 16 molecules.

For series [1], the target named is recombinant RORγ Ligand Binding Domain (LBD) protein (Homo sapiens (Human), UniProt P51449). The experiment in a line: Radio-Ligand RORγ Binding Assay (Assay 1). The following applies: competition with 25-hydroxy [26,27-3H]-cholesterol, SPA; read-out: RORγ Binding Ki Range (nM) (Assay 1). As to the method: Radio-Ligand RORγ Binding Assay (Assay 1)
Compounds of the present invention were tested for ability to bind to RORγ in a cell-free competition assay with commercially available radio-ligand (RL), 25-hydroxy [26,27-^3H]-cholesterol (PerkinElmer, Cat. # NET674250UC), for a ligand binding site on a recombinant RORγ Ligand Binding Domain (LBD) protein expressed as a 6×His-Glutathione-S-Transferase (GST) fusion. […] The plate was shaken at 700 rpm for 20 min and incubated for 10 min at rt, after which 40 μL of poly-Lys YSi SPA beads (PerkinElmer, Cat. # RPNQ0010) were added to achieve 50 μg of the beads per well. The plate was incubated on an orbital shaker for 20 min and then for 10 min without agitation at rt. SPA signal for tritium beta radiation was registered on PerkinElmer Microbeta plate reader. […] The percent inhibition vs. concentration data were fit into a four-parameter model, and IC50 values were calculated from the fit as the concentrations corresponding to the inflection points on the dose-response curves.

The target in series [2] is full-length RORγt in Jurkat cells (Homo sapiens (Human), UniProt P51449). The experiment in a line: RORγt 5×RORE Assay in Jurkat Cells (Assay 2). The following applies: 5×RORE Nanoluc luciferase reporter, read-out: RORγt5X IC50 Range (nM) (Assay 2). The class given is cell-based. As to the method: [formula] RORγt 5×RORE Assay in Jurkat Cells (Assay 2)
Compounds of the present invention were tested for RORγ inverse agonist activity in a cell-based, transcriptional activity assay. […] (Promega, Cat. # N1021) using KpnI and HindIII restriction sites. […] Tested compounds were added to the cells in the same media (final concentration of DMSO was 0.1% (v/v)), and the plates were incubated at 37° C./5% CO2 for 16-18 hr. Luciferase activity in the conditioned supernatants was determined with NanoGlo® assay reagents (Promega, Cat.# N1130).

The target in series [3] is hERG potassium ion channel (Homo sapiens (Human), UniProt Q12809). Kind of series: hERG Assay (Assay 4). The class given is cell-based. To be noted: HEK293 cells stably transfected with hERG cDNA, pH 7.4, compound at 3 μM, patch clamp, HEK 293 cells transfected with hERG. As for the experimental part: Compounds of the invention were tested in vitro against the hERG (human ether-à-go-go-related gene) potassium ion channel (a surrogate for IKr, the rapidly activating delayed rectifier cardiac potassium ion channel).
The buffer was HEPES-buffered physiological saline (HB-PS) solution composed of: 137 mM NaCl, 4.0 mM KCl, 1.8 mM CaCl2, 1 mM MgCl2, 10 mM HEPES, 10 mM glucose, pH adjusted to 7.4 with NaOH, and 0.3% DMSO. Chemicals used in solution preparation were purchased from Sigma-Aldrich (St. Louis, Mo.), unless otherwise noted, and were of ACS reagent grade purity or higher.
HEK (human embryonic kidney) 293 cells were stably transfected with hERG cDNA.
For the patch clamp experiment, onset and steady state inhibition of hERG potassium current was measured using a pulse pattern with fixed amplitudes (depolarization: +20 mV for 2 s; repolarization: −50 mV for 2 s) repeated at 10 s intervals from a holding potential of −80 mV. Peak tail current was measured during the 2 s step to −50 mV. A steady state was maintained for at least 30 seconds before applying compound or positive control (cisapride). Peak tail currents were measured until a new steady state was achieved.
Data acquisition and analyses were performed using the suite of pCLAMP® (ver. 8.2) programs (MDS Analytical Technologies, Sunnyvale, Calif.). Steady state was defined by the limiting constant rate of change with time (linear time dependence). The steady state before and after each compound application was used to calculate the percentage of current inhibited at each concentration.
Concentration-response data were fit to an equation of the following form: % Inhibition={1−1/[1+([Test]/IC50)N]}*100
where [Test] was the compound concentration, IC50 was the compound concentration at half-maximal inhibition, N was the Hill coefficient, and % Inhibition was the percentage of current inhibited at each compound concentration. Nonlinear least squares fits were solved with the Solver add-in for Excel 2003 (Microsoft, WA) and the IC50 was calculated.
(In general: hERG is a cardiac potassium channel; its block is linked to QT prolongation.)

Series [4] concerns IL-17A production in human whole blood. Kind of series: Human Whole Blood Assay (Assay 3). To be noted: IL-17A secretion, CytoStim activation, 48 h, 50% blood/media. The class given is cell-based. As to the method: Human Whole Blood Assay (Assay 3)
Compounds of the invention were tested in the human whole blood assay to measure their effects on IL-17A production as determined by cytokine secretion into 50% blood/media supernatant. Mixtures of sodium heparinized whole blood (isolated from healthy human donors) and the T cell activator CytoStim, in the presence or absence of compound, were plated in sterilized, tissue culture-treated 24-well plates. […]
Mixtures were incubated at 37° C./5% CO2 for 48 h, after which, 200 μL of clean supernatant (i.e., no red blood cells) from each well was transferred to a well in a 96-well plate. IL-17A cytokine expression was determined using 25 μL of the transferred supernatant diluted with 25 μL of Diluent 43 from the Human IL-17A V-PLEX™ kit (cat. # K151RFD-4, Meso Scale Discovery, Rockville, Md.). […] The IL-17A V-PLEX™ plates were read using the Meso Scale Discovery Imager (Model 1200). The levels of IL-17A were extrapolated from a standard curve using a four-parameter non-linear fitting model and expressed as pg/mL. […]

recombinant RORγ Ligand Binding Domain (LBD) protein, sequence (P51449 269-508): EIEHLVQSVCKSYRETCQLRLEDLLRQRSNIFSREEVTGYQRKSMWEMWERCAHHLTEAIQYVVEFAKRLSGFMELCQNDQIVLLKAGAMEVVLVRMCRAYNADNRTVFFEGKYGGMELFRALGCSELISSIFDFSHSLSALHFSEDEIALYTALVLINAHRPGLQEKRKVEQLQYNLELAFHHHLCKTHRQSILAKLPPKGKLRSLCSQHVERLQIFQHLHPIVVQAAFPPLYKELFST
full-length RORγt in Jurkat cells, sequence (P51449 other isoform, or with tags, fused parts or gaps): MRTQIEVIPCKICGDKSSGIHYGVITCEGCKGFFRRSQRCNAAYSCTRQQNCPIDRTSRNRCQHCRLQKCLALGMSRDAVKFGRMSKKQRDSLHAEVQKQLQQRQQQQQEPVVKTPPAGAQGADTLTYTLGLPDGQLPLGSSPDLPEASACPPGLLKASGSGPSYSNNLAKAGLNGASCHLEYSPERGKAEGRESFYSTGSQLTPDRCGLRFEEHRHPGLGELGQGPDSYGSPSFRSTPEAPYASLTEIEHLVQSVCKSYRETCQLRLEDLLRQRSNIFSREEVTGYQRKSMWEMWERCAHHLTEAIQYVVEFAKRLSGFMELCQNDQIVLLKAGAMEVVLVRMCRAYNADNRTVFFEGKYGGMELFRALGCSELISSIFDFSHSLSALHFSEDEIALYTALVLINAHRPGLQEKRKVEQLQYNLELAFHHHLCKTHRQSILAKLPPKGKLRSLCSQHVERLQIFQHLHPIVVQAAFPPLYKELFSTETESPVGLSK
hERG potassium ion channel, sequence (Q12809 whole entry): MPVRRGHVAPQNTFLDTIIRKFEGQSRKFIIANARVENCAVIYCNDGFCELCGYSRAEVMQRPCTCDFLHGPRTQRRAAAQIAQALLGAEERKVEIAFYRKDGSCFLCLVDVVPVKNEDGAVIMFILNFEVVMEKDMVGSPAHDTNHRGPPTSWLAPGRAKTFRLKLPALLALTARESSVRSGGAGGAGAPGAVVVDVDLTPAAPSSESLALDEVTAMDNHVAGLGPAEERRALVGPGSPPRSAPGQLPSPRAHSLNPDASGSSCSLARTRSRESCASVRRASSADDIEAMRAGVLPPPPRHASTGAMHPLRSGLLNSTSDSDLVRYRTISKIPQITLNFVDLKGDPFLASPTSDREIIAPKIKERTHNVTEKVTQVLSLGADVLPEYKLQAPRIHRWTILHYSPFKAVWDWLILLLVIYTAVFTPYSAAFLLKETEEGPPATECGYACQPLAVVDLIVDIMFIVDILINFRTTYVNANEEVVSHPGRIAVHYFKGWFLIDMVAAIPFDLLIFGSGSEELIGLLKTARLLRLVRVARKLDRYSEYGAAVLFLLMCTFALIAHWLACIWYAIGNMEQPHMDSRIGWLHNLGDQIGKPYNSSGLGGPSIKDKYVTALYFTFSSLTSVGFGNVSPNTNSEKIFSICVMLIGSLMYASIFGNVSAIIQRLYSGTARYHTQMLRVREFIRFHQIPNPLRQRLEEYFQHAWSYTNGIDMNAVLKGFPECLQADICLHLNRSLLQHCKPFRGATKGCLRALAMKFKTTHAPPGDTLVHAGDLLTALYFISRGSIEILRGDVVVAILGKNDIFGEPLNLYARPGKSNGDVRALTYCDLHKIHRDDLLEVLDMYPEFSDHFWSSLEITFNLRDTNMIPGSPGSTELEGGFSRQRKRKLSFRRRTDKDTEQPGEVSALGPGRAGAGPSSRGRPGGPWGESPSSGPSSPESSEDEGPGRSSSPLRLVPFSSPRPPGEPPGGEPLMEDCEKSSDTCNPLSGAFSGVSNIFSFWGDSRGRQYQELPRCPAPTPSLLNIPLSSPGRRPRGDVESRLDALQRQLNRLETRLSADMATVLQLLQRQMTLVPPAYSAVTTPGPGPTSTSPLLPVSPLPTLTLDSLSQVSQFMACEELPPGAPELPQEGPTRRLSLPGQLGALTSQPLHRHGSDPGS

One may read the Ki as the dissociation constant of the complex between target and ligand, obtained from inhibition or displacement. One may read the IC50 as the concentration at which inhibition is half-maximal. In the case of `CCS(=O)(=O)c1ccc([C@H](COC(N)=O)NC(=O)c2cnc3c(c2)CN(C[C@H]2CC[C@H](C(F)(F)F)CC2)[C@H]3C(C)C)nc1` [Compound 10], the inhibition constant (Ki) in series [1] was under 100 nM. Also, the IC50 in series [2] is under 100 nM.

In the case of `CC[C@H]1c2ncc(C(=O)N[C@@H](COC)c3ccc(S(=O)(=O)CC)cc3)cc2CN1C[C@@H]1CC[C@@H](C(F)(F)F)OC1` (single isomer, unassigned) [Compound 4], in series [1], the Ki was under 100 nM. The IC50 in series [2] is under 100 nM.

Take `CCS(=O)(=O)c1ccc([C@H](COC(N)=O)NC(=O)c2cnc3c(c2)CN(C[C@H]2CC[C@@H](C(F)(F)F)CC2)[C@H]3C(C)C)cc1` [Compound 11]: the Ki in series [1] was under 100 nM. Also, in series [2], the half-maximal inhibitory concentration (IC50) is over 1000 nM.

A word on the inhibition: it is the drop in the measured response relative to a control, in per cent. High values mean a strong effect, low ones a weak effect. Take `CCS(=O)(=O)c1ccc(CNC(=O)c2cnc3c(c2)CN(C[C@H]2CC[C@H](C(F)(F)F)CC2)[C@H]3C(C)C)cc1`: in series [3], the inhibition at 3 µM came to 57%.

For the molecule `CCS(=O)(=O)c1ccc([C@@H](COC(N)=O)NC(=O)c2cnc3c(c2)CN(C[C@H]2CC[C@H](C(F)(F)F)CC2)[C@H]3C(C)C)cc1` [Compound 12], the inhibitory constant (Ki) in series [1] was under 100 nM. For the same molecule, in series [2], the IC50 was under 100 nM. Testing at 3 µM in series [3] gave an inhibition of 38.8%.

On to `CC[C@H]1c2ncc(C(=O)N[C@@H](COC)c3ccc(S(=O)(=O)CC)cc3)cc2CN1C[C@H]1CC[C@H](C(F)(F)F)OC1` (single isomer, unassigned) [Compound 3], for which the Ki in series [1] was under 100 nM. The half-maximal inhibitory concentration (IC50) in series [2] was under 100 nM. The molecule also registered an inhibition at 3 µM in series [3] of 24.3%.

Regarding `CCS(=O)(=O)c1ccc([C@H](COC)NC(=O)c2cnc3c(c2)CN(C[C@H]2CC[C@@H](C(F)(F)F)CC2)[C@H]3C(C)C)cc1` [Compound 8], the Ki in series [1] was under 100 nM. Besides, the 50% inhibitory concentration (IC50) in series [2] is over 1000 nM.

Regarding `CCS(=O)(=O)c1ccc(CNC(=O)c2cnc3c(c2)CN(C[C@H]2CC[C@H](C(F)(F)F)CC2)[C@H]3C(C)C)nc1`, the inhibition at 3 µM in series [3] was determined as 45.4%.

For the molecule `CC[C@H]1c2ncc(C(=O)N[C@@H](COC(N)=O)c3ccc(S(=O)(=O)CC)cc3)cc2CN1C[C@H]1CC[C@H](C(F)(F)F)CC1` [Compound 2, (R)-2-((S)-7-ethyl-6-((trans-4-(trifluoromethyl)cyclohexyl)methyl)-6,7-dihydro-5H-pyrrolo[3,4-b]pyridine-3-carboxamido)-2-(4-(ethylsulfonyl)phenyl)ethyl carbamate], the concentration for half-maximal inhibition (IC50) in series [4] is […]; in series [2], […]. Moreover, in series [1], the Ki was […]. In series [3], at 3 µM the inhibition was 38.8%.

For the molecule `CC[C@@H]1c2ncc(C(=O)N[C@@H](COC(N)=O)c3ccc(S(=O)(=O)CC)cc3)cc2CN1C[C@H]1CC[C@H](C(F)(F)F)CC1` [Compound 13], the Ki in series [1] is […].

Consider `CCS(=O)(=O)c1ccc([C@@H](COC(N)=O)NC(=O)c2cnc3c(c2)CN(C[C@H]2CC[C@@H](C(F)(F)F)CC2)[C@H]3C(C)C)nc1` [Compound 9], for which the Ki in series [1] was under 100 nM. Moreover, the IC50 in series [2] is over 1000 nM.

Turning to `CC[C@H]1c2ncc(C(=O)N[C@@H](COC)c3ccc(S(=O)(=O)CC)cc3)cc2CN1C[C@@H]1CC[C@H](C(F)(F)F)OC1` (single isomer, unassigned) [Compound 5], the inhibition constant (Ki) in series [1] is under 100 nM. In addition, the concentration for half-maximal inhibition (IC50) in series [2] is over 1000 nM.

Regarding `CCS(=O)(=O)c1ccc([C@H](COCC(=O)O)NC(=O)c2cnc3c(c2)CN(C[C@H]2CC[C@H](C(F)(F)F)CC2)[C@H]3C(C)C)cc1` [Compound 14], the Ki in series [1] was under 100 nM. The IC50 in series [2] was in the range of 100 to 1000 nM.

Consider `CC[C@H]1c2ncc(C(=O)N[C@@H](COC)c3ccc(S(=O)(=O)CC)cc3)cc2CN1C[C@H]1CC[C@@H](C(F)(F)F)OC1` (single isomer, unassigned) [Compound 6], for which the Ki in series [1] was under 100 nM. In addition, the IC50 in series [2] was over 1000 nM.

Turning to `CCS(=O)(=O)c1ccc([C@H](COC)NC(=O)c2cnc3c(c2)CN(C[C@H]2CC[C@H](C(F)(F)F)CC2)[C@H]3C(C)C)cc1` [Compound 15], the Ki in series [1] was under 100 nM. Moreover, the half-inhibitory concentration (IC50) in series [2] is under 100 nM. Besides, in series [3], the inhibition at 3 µM turned out to be 50%.

`CC[C@H]1c2ncc(C(=O)N[C@@H](COC)c3ccc(S(=O)(=O)CC)cc3)cc2CN1C[C@H]1CC[C@H](C(F)(F)F)CC1` [Compound 1, (S)-7-ethyl-N—((R)-1-(4-(ethylsulfonyl)phenyl)-2-methoxyethyl)-6-((trans-4-(trifluoromethyl)cyclohexyl)methyl)-6,7-dihydro-5H-pyrrolo[3,4-b]pyridine-3-carboxamide]: the half-inhibitory concentration (IC50) in series [4] and in series [2] was under 100 nM throughout. In addition, the inhibition constant (Ki) in series [1] was under 100 nM. Further, the inhibition at 3 µM in series [3] came out at 24.3%.
